From ChEMBL document CHEMBL3217706, “Identification of CYP1A2 ligands by structure-based and ligand-based virtual screening” (Medchemcomm, 2011)

Tests used:
[1] = biological target: T1, Cytochrome P450 1A2 (Homo sapiens, UniProt P05177); experiment: Inhibition of human recombinant CYP1A2 EROD activity expressed in Escherichia coli JM109 assessed as inhibition of de-ethylation of 7-ethoxyresorufin to resorufin by spectrofluorometric analysis; assay type: ADME
T1 sequence (P05177 whole entry): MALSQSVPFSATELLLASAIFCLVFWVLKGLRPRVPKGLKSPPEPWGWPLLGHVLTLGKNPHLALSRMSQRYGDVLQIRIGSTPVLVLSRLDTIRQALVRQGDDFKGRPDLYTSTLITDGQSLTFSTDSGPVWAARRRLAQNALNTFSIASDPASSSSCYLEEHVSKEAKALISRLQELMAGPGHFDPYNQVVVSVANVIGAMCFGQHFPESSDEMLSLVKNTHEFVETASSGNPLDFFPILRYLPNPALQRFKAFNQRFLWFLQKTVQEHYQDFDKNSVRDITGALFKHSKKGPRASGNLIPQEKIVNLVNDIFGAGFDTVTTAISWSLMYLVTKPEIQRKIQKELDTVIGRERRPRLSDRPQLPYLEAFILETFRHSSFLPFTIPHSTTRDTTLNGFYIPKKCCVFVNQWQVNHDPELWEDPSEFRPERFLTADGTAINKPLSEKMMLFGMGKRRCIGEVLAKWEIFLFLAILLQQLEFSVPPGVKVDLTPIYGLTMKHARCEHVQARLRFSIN

[2] = biological target: T2, CYP1A2 (Homo sapiens, UniProt P05177); experiment: Inhibition of human recombinant CYP1A2 EROD activity expressed in Escherichia coli JM109 assessed as inhibition of de-ethylation of 7-ethoxyresorufin to resorufin at 0.3 uM by spectrofluorometric analysis; assay type: ADME; conditions: recombinant human CYP1A2 expressed in Escherichia coli JM109, probe 7-ethoxyresorufin
T2 sequence (P05177 whole entry): T1 sequence (P05177 whole entry)

SMILES | IC50 [1] [nM] | inhibition at 0.3 µM [2] [%]
COc1ccc(Nc2nc(-c3cccs3)cs2)cc1 | 72 | > 50
Cc1nn(-c2ccccc2)c2nc(C(F)(F)F)cc(C(F)(F)F)c12 | 231 | > 50
COc1ccc(C=O)cc1COc1c(Cl)cc(Cl)cc1Cl | 57 | > 50
N#CC1=C(N)Oc2c(ccc3ccccc23)C1c1ccc2c(c1)OCC2 (centres undefined) | 112 | > 50
C(=N\n1cnnc1)/c1ccc(-c2cccc3ccccc23)o1 | 48 | > 50
CN1C(=O)/C(=C2\NC(=S)NC2=O)c2cc(Br)ccc21 | 49 | > 50
Brc1ccc2c3c(cccc13)-c1nc3ccccc3nc1-2 | 22 | > 50
O=[N+]([O-])c1ccc2nc3c(nc2c1)-c1cccc2cccc-3c12 | 21 | > 50
Cn1c(=O)cc2c3c(c(N)ccc31)C(=O)c1ccccc1-2 | 16 | > 50
O=c1cc(-c2ccccc2)oc2c1ccc1ccccc12 [ALPHA-NAPHTHOFLAVONE] | – | > 50
